Test results: ChEMBL document CHEMBL1201862, “PubChem BioAssay data set” (2004)
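All cell lines were grown in 96-well plates and treated with compound for 48 hours. At the GI50, growth is halved.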 Calls of active or inactive are those of the source. Rule as the data show it: active = GI50 up to about 1.1 µM and inactive = higher.

Experiments:
Assay in all cases: NCI anticancer screen, dose series, 48 h
786-0 = system: 786-0
A498 = system: A498
A549 = system: A549
ACHN = system: ACHN
BT-549 = system: BT-549
CAKI-1 = system: CAKI-1
CCRF-CEM = system: CCRF-CEM
COLO 205 = system: COLO 205
DU-145 = system: DU-145
EKVX = system: EKVX
HCC 2998 = system: HCC 2998
HCT-116 = system: HCT-116
HCT-15 = system: HCT-15
HOP-62 = system: HOP-62
HOP-92 = system: HOP-92
HT-29 = system: HT-29
IGROV-1 = system: IGROV-1
K562 = system: K562
KM12 = system: KM12
LOX IMVI = system: LOX IMVI
M14 = system: M14
MCF7 = system: MCF7
MDA-MB-231 = system: MDA-MB-231
MDA-MB-435 = system: MDA-MB-435
MDA-N = system: MDA-N
MOLT-4 = system: MOLT-4
Malme-3M = system: Malme-3M
NCI-H226 = system: NCI-H226
NCI-H23 = system: NCI-H23
NCI-H522 = system: NCI-H522
NCI/ADR-RES = system: NCI/ADR-RES
OVCAR-3 = system: OVCAR-3
OVCAR-4 = system: OVCAR-4
OVCAR-5 = system: OVCAR-5
OVCAR-8 = system: OVCAR-8
PC-3 = system: PC-3
RPMI-8226 = system: RPMI-8226
SF-268 = system: SF-268
SF-295 = system: SF-295
SF-539 = system: SF-539
SK-MEL-2 = system: SK-MEL-2
SK-MEL-5 = system: SK-MEL-5
SK-OV-3 = system: SK-OV-3
SN12C = system: SN12C
SR = system: SR
SW-620 = system: SW-620
T47D = system: T47D
TK-10 = system: TK-10
U-251 = system: U-251
UACC-257 = system: UACC-257
UACC-62 = system: UACC-62
UO-31 = system: UO-31
HL-60 = system: HL-60
NCI-H460 = system: NCI-H460
RXF 393 = system: RXF 393
SK-MEL-28 = system: SK-MEL-28
SNB-19 = system: SNB-19
SNB-75 = system: SNB-75

## CCCCNC(=S)Nc1nc(C(=O)NNC(=S)NC2CCCCC2)cs1
786-0
  GI50: > 100 µM (inactive)
A498
  GI50: > 100 µM (inactive)
A549
  GI50: > 100 µM (inactive)
ACHN
  GI50: 62.7 µM (inactive)
BT-549
  GI50: > 100 µM (inactive)
CAKI-1
  GI50: > 100 µM (inactive)
CCRF-CEM
  GI50: 67.6 µM (inactive)
COLO 205
  GI50: > 100 µM (inactive)
DU-145
  GI50: > 100 µM (inactive)
EKVX
  GI50: > 100 µM (inactive)
HCC 2998
  GI50: > 100 µM (inactive)
HCT-116
  GI50: > 100 µM (inactive)
HCT-15
  GI50: 32.7 µM
HOP-62
  GI50: > 100 µM (inactive)
HOP-92
  GI50: > 100 µM (inactive)
HT-29
  GI50: > 100 µM (inactive)
IGROV-1
  GI50: 66.5 µM (inactive)
K562
  GI50: 75.5 µM (inactive)
KM12
  GI50: > 100 µM (inactive)
LOX IMVI
  GI50: > 100 µM (inactive)
M14
  GI50: > 100 µM (inactive)
MCF7
  GI50: > 100 µM (inactive)
MDA-MB-231
  GI50: > 100 µM (inactive)
MDA-MB-435
  GI50: > 100 µM (inactive)
MDA-N
  GI50: > 100 µM (inactive)
MOLT-4
  GI50: > 10 µM (inactive)
Malme-3M
  GI50: > 100 µM (inactive)
NCI-H226
  GI50: > 100 µM (inactive)
NCI-H23
  GI50: > 100 µM (inactive)
NCI-H522
  GI50: > 100 µM (inactive)
NCI/ADR-RES
  GI50: 74.3 µM (inactive)
OVCAR-3
  GI50: 91.8 µM (inactive)
OVCAR-4
  GI50: > 100 µM (inactive)
OVCAR-5
  GI50: > 100 µM (inactive)
OVCAR-8
  GI50: 69.3 µM (inactive)
PC-3
  GI50: > 100 µM (inactive)
RPMI-8226
  GI50: > 100 µM (inactive)
SF-268
  GI50: > 100 µM (inactive)
SF-295
  GI50: > 100 µM (inactive)
SF-539
  GI50: > 100 µM (inactive)
SK-MEL-2
  GI50: > 100 µM (inactive)
SK-MEL-5
  GI50: 67.6 µM (inactive)
SK-OV-3
  GI50: 49 µM (inactive)
SN12C
  GI50: > 100 µM (inactive)
SR
  GI50: 8.07 µM (inactive)
SW-620
  GI50: > 100 µM (inactive)
T47D
  GI50: > 100 µM (inactive)
TK-10
  GI50: > 100 µM (inactive)
U-251
  GI50: 91.4 µM (inactive)
UACC-257
  GI50: > 100 µM (inactive)
UACC-62
  GI50: > 100 µM (inactive)
UO-31
  GI50: 45.6 µM (inactive)

## Cc1ccc(C(=O)N/N=C(\N=N\c2ccc(C(=O)O)cc2)c2ccc(N(CCC#N)CCC#N)cc2C)cc1
786-0
  GI50: > 100 µM (inactive)
A498
  GI50: 53.8 µM (inactive)
A549
  GI50: > 100 µM (inactive)
ACHN
  GI50: > 100 µM (inactive)
BT-549
  GI50: 83 µM (inactive)
CAKI-1
  GI50: > 100 µM (inactive)
CCRF-CEM
  GI50: > 100 µM (inactive)
COLO 205
  GI50: > 100 µM (inactive)
DU-145
  GI50: > 100 µM (inactive)
EKVX
  GI50: > 100 µM (inactive)
HCC 2998
  GI50: > 100 µM (inactive)
HCT-116
  GI50: > 100 µM (inactive)
HCT-15
  GI50: > 100 µM
HL-60
  GI50: 79.3 µM (inactive)
HOP-62
  GI50: > 100 µM (inactive)
HOP-92
  GI50: > 100 µM (inactive)
HT-29
  GI50: > 100 µM (inactive)
K562
  GI50: > 100 µM (inactive)
KM12
  GI50: > 100 µM (inactive)
LOX IMVI
  GI50: > 100 µM (inactive)
M14
  GI50: > 100 µM (inactive)
MCF7
  GI50: > 100 µM (inactive)
MDA-MB-231
  GI50: > 100 µM (inactive)
MDA-MB-435
  GI50: > 100 µM (inactive)
MDA-N
  GI50: > 100 µM (inactive)
MOLT-4
  GI50: > 100 µM (inactive)
NCI-H226
  GI50: > 100 µM (inactive)
NCI-H23
  GI50: > 100 µM (inactive)
NCI-H460
  GI50: > 100 µM (inactive)
NCI/ADR-RES
  GI50: > 100 µM (inactive)
OVCAR-3
  GI50: 62.8 µM (inactive)
OVCAR-4
  GI50: > 100 µM (inactive)
OVCAR-5
  GI50: > 100 µM (inactive)
OVCAR-8
  GI50: > 100 µM (inactive)
PC-3
  GI50: > 100 µM (inactive)
RPMI-8226
  GI50: > 100 µM (inactive)
RXF 393
  GI50: 32.1 µM (inactive)
SF-295
  GI50: > 100 µM (inactive)
SF-539
  GI50: > 100 µM (inactive)
SK-MEL-28
  GI50: > 100 µM (inactive)
SK-MEL-2
  GI50: > 100 µM (inactive)
SK-MEL-5
  GI50: > 100 µM (inactive)
SK-OV-3
  GI50: 80.7 µM (inactive)
SN12C
  GI50: > 100 µM (inactive)
SNB-19
  GI50: > 100 µM (inactive)
SNB-75
  GI50: 43.9 µM (inactive)
SR
  GI50: > 100 µM (inactive)
SW-620
  GI50: > 100 µM (inactive)
T47D
  GI50: 70.5 µM (inactive)
TK-10
  GI50: > 100 µM (inactive)
U-251
  GI50: > 100 µM (inactive)
UACC-257
  GI50: > 100 µM (inactive)
UO-31
  GI50: > 100 µM (inactive)

## O=S(=O)(N=S(c1ccccc1)c1ccccc1)c1ccccc1
786-0
  GI50: > 100 µM (inactive)
A498
  GI50: 78.9 µM (inactive)
A549
  GI50: > 100 µM (inactive)
ACHN
  GI50: > 100 µM (inactive)
BT-549
  GI50: > 100 µM (inactive)
CCRF-CEM
  GI50: > 100 µM (inactive)
COLO 205
  GI50: > 100 µM (inactive)
DU-145
  GI50: > 100 µM (inactive)
EKVX
  GI50: > 100 µM (inactive)
HCT-116
  GI50: > 100 µM (inactive)
HCT-15
  GI50: > 100 µM
HL-60
  GI50: > 100 µM (inactive)
HOP-62
  GI50: > 100 µM (inactive)
HOP-92
  GI50: > 100 µM (inactive)
HT-29
  GI50: > 100 µM (inactive)
K562
  GI50: > 100 µM (inactive)
KM12
  GI50: > 100 µM (inactive)
M14
  GI50: > 100 µM (inactive)
MCF7
  GI50: > 100 µM (inactive)
MDA-MB-435
  GI50: > 100 µM (inactive)
MOLT-4
  GI50: > 100 µM (inactive)
Malme-3M
  GI50: > 100 µM (inactive)
NCI-H226
  GI50: > 100 µM (inactive)
NCI-H23
  GI50: > 100 µM (inactive)
NCI-H460
  GI50: > 100 µM (inactive)
NCI/ADR-RES
  GI50: > 100 µM (inactive)
OVCAR-3
  GI50: > 100 µM (inactive)
OVCAR-5
  GI50: > 100 µM (inactive)
OVCAR-8
  GI50: > 100 µM (inactive)
PC-3
  GI50: > 100 µM (inactive)
RPMI-8226
  GI50: > 100 µM (inactive)
RXF 393
  GI50: > 100 µM (inactive)
SF-268
  GI50: > 100 µM (inactive)
SF-295
  GI50: > 100 µM (inactive)
SF-539
  GI50: > 100 µM (inactive)
SK-MEL-28
  GI50: > 100 µM (inactive)
SN12C
  GI50: > 100 µM (inactive)
SNB-19
  GI50: > 100 µM (inactive)
SR
  GI50: > 100 µM (inactive)
SW-620
  GI50: > 100 µM (inactive)
T47D
  GI50: > 100 µM (inactive)
TK-10
  GI50: > 100 µM (inactive)
U-251
  GI50: > 100 µM (inactive)
UACC-257
  GI50: > 100 µM (inactive)
UO-31
  GI50: > 100 µM (inactive)
